# Values quoted from earlier work, collected in patent publication EP4640076A1, “ORAL PRODUCT WITH FLAVOR EMULSION” (Nicoventures Trading Limited, priority 2024, dated 2025).
# Read-outs that look alike come from different tables or passages of the source.
# Assays:
# [1] = at 25°C; heptanal
logP (resveratrol),vapor pressure [1] [mm Hg],logP (heptanal),Structure (SMILES)
3.1,,,"Oc1ccc(/C=C/c2cc(O)cc(O)c2)cc1 [Resveratrol, 3,5,4'-trihydroxy-trans-stilbene]"
,3.85,2.44,CCCCCCC=O [heptanal]
